Results from US10590462B2, “Probes and assays for measuring E3 ligase activity” (NORTHWESTERN UNIVERSITY, priority 2014, dated 2020).

System: Rsp5 HECT domain
Test: UbiFlu real-time fluorescence polarization kinetics with Rsp5 HECT domain
Format: biochemical, S. cerevisiae
Conditions: in the presence of 8× SFlu

SMILES: O=C1OC2(c3ccc(O)cc3Oc3cc(O)ccc32)c2ccc(NC(=S)NCCS)cc21 [SFlu]
- inhibition of UbiFlu consumption: no inhibition
